Earlier results on 52 compounds are cited in publication PMC5962642, “Dynamic imaging of adaptive stress response pathway activation for prediction of drug induced liver injury” (Archives of Toxicology, 2018).

For series [1] the following is noted: C-max obtained from FDA or literature; ref per compound (FDA, Dailymed, Xu, O’Brien, Khetani, Regenthal, Gustafsson, Dawson, Ogutu, Patel, Schmidt, Ravic, Keisu, Hu, Wagner); cited from earlier work.
The conditions of series [2]: ref Chen et al. [2016], cited from earlier work; for DILI con. (DILI-concern labeling): FDA DILI labeling; for Hepa. (hepatotoxicity class): FDA labeling in eight classes of hepatotoxicity.
The conditions of series [3]: ref livertox.nih.gov database; cited from earlier work.

`CCCNC(=O)NS(=O)(=O)c1ccc(Cl)cc1` [Chlorpropamide]: the Cmax in series [1] was 130000 nM. Also, in series [2], the “DILI con. (DILI-concern labeling)” value is “Less-DC” and the “Hepa. (hepatotoxicity class)” value is recorded as 2.

As to `CC/C(=C(\c1ccccc1)c1ccc(OCCN(C)C)cc1)c1ccccc1` [Tamoxifen], the “Metab (metabolic potential)” value in series [3] is given as “YES”.

On to `Nc1nc(O)c2ncn(COC(CO)CO)c2n1` [Ganciclovir], for which the Cmax in series [1] is 4620 nM. In series [2], the “Hepa. (hepatotoxicity class)” value is listed as 7.

Turning to `CC[C@@H](CO)NCCN[C@@H](CC)CO` [Ethambutol], the Cmax in series [1] was 24500 nM. Besides, in series [2], the “DILI con. (DILI-concern labeling)” value is “Most-DC” and the “Hepa. (hepatotoxicity class)” value is on record as 8.

As to `CN(C/C=C/C#CC(C)(C)C)Cc1cccc2ccccc12` [Terbinafine], the Cmax in series [1] was 4000 nM. In addition, in series [2], the “DILI con. (DILI-concern labeling)” value was “Most-DC” and the “Hepa. (hepatotoxicity class)” value was 8.

`CC(=O)Oc1cc(C(C)C)c(OCCN(C)C)cc1C` [Moxisylyte]: the Cmax in series [1] is 160 nM. Besides, in series [2], the “Hepa. (hepatotoxicity class)” value is 8.

`O=c1[nH]cnc2c1ncn2[C@H]1CC[C@@H](CO)O1` [Didanosine]: the Cmax in series [1] was 9830 nM. In addition, in series [2], the “Hepa. (hepatotoxicity class)” value is recorded as 8.

`CC(C)NCC(O)COc1cccc2ccccc12` (centres unmarked) [Propranolol]: the “Metab (metabolic potential)” value in series [3] is recorded as “YES”.

`OCCOCCN1CCN(C(c2ccccc2)c2ccc(Cl)cc2)CC1` (centres unmarked) [Hydroxyzine]: in series [1], the Cmax was 270 nM. Also, in series [2], the “DILI con. (DILI-concern labeling)” value is given as “No-DC” and the “Hepa. (hepatotoxicity class)” value was 1.

For `CC[C@H]1OC(=O)[C@H](C)[C@@H](O[C@H]2C[C@@](C)(OC)[C@@H](O)[C@H](C)O2)[C@H](C)[C@@H](O[C@@H]2O[C@H](C)C[C@H](N(C)C)[C@H]2O)[C@](C)(O)C[C@@H](C)C(=O)[C@H](C)[C@@H](O)[C@]1(C)O` [Erythromycin], in series [1], the Cmax was 11000 nM.

For the compound `C[C@@H]1C[C@H]2[C@@H]3CCC4=CC(=O)C=C[C@]4(C)[C@@]3(F)[C@@H](O)C[C@]2(C)[C@@]1(O)C(=O)CO` [Dexamethasone], the Cmax in series [1] was 224 nM. In addition, in series [2], the “DILI con. (DILI-concern labeling)” value is reported as “Amb.-DC” and the “Hepa. (hepatotoxicity class)” value is 3.

In the case of `CN(C)/N=N/c1[nH]cnc1C(N)=O` [Dacarbazine], in series [1], the Cmax is 20600 nM. Besides, in series [2], the “DILI con. (DILI-concern labeling)” value is reported as “Most-DC” and the “Hepa. (hepatotoxicity class)” value was 6.

Consider `Fc1ccc([C@@H]2CCNC[C@H]2COc2ccc3c(c2)OCO3)cc1` [Paroxetine], for which the “Metab (metabolic potential)” value in series [3] is reported as “YES”. Moreover, in series [2], the “DILI con. (DILI-concern labeling)” value is reported as “Less-DC” and the “Hepa. (hepatotoxicity class)” value was 8.

Turning to `CC(CCc1ccccc1)NCC(O)c1ccc(O)c(C(N)=O)c1` (centres unmarked) [Labetalol], the Cmax in series [1] was 2680 nM. In addition, in series [2], the “DILI con. (DILI-concern labeling)” value was “Most-DC” and the “Hepa. (hepatotoxicity class)” value is on record as 8.

For the compound `CNC[C@H](O)c1ccc(O)c(O)c1` [Epinephrine], in series [1], the Cmax was 2 nM. For the same compound, in series [2], the “DILI con. (DILI-concern labeling)” value is given as “No-DC” and the “Hepa. (hepatotoxicity class)” value was 1.

As for `C1CCC(C(CC2CCCCN2)C2CCCCC2)CC1` (centres unmarked) [Perhexiline], in series [2], the “DILI con. (DILI-concern labeling)” value is given as “Most-DC” and the “Hepa. (hepatotoxicity class)” value is reported as 8.

Regarding `CN(C)c1nc(N(C)C)nc(N(C)C)n1` [Altretamine], in series [1], the Cmax is 3760 nM. In addition, the “DILI con. (DILI-concern labeling)” value in series [2] was “Amb.-DC”.

Regarding `C[C@H](CS)C(=O)N1CCC[C@H]1C(=O)O` [Captopril], the Cmax in series [1] is 8880 nM. Moreover, the “Hepa. (hepatotoxicity class)” value in series [2] is reported as 7.

In the case of `CNC(=C[N+](=O)[O-])NCCSCc1ccc(CN(C)C)o1` [Ranitidine], the Cmax in series [1] is 1790 nM. In series [2], the “DILI con. (DILI-concern labeling)” value was “Less-DC” and the “Hepa. (hepatotoxicity class)” value was 5.

For `Cc1cccc(CN2CCN(C(c3ccccc3)c3ccc(Cl)cc3)CC2)c1` (centres unmarked) [Meclizine], in series [2], the “DILI con. (DILI-concern labeling)” value is “No-DC” and the “Hepa. (hepatotoxicity class)” value was 1.

As for `COc1ccc([C@@H]2Sc3ccccc3N(CCN(C)C)C(=O)[C@@H]2OC(C)=O)cc1` [Diltiazem], in series [1], the Cmax is 356 nM.

Turning to `C#C[C@]1(O)CC[C@H]2[C@@H]3CCC4=Cc5oncc5C[C@]4(C)[C@H]3CC[C@@]21C` [Danazol], the Cmax in series [1] is 109 nM. Moreover, the “Hepa. (hepatotoxicity class)” value in series [2] is reported as 8.

Turning to `Clc1ccccc1CN1CCc2sccc2C1` [Ticlopidine], the Cmax in series [1] was 8070 nM.

On to `CC(C)NCC(O)c1ccc(O)c(O)c1` (centres unmarked) [Isoproterenol], for which the Cmax in series [1] is 2020 nM. Moreover, in series [2], the “DILI con. (DILI-concern labeling)” value was “No-DC” and the “Hepa. (hepatotoxicity class)” value is recorded as 1.

With `CC(C)OC(=O)C(C)(C)Oc1ccc(C(=O)c2ccc(Cl)cc2)cc1` [Fenofibrate], the Cmax in series [1] is 4100 nM. Also, the “Hepa. (hepatotoxicity class)” value in series [2] is on record as 3.

With `O=C(N[C@H](CO)[C@H](O)c1ccc([N+](=O)[O-])cc1)C(Cl)Cl` [Chloramphenicol], in series [1], the Cmax is 46400 nM.

With `CC(=O)CC(c1ccccc1)c1c(O)c2ccccc2oc1=O` (centres unmarked) [Warfarin], the Cmax in series [1] is 4860 nM.

Take `COCCc1ccc(OCC(O)CNC(C)C)cc1` (centres unmarked) [Metoprolol]: the Cmax in series [1] is 560 nM.

For `C[C@H]1O[C@@H](O[C@H]2[C@@H](O)C[C@H](O[C@H]3[C@@H](O)C[C@H](O[C@H]4CC[C@@]5(C)[C@H](CC[C@@H]6[C@@H]5C[C@@H](O)[C@]5(C)[C@@H](C7=CC(=O)OC7)CC[C@]65O)C4)O[C@@H]3C)O[C@@H]2C)C[C@H](O)[C@@H]1O` [Digoxin], the Cmax in series [1] is 3 nM. In series [2], the “Hepa. (hepatotoxicity class)” value is 1.

`O=C1CC2(CCCC2)CC(=O)N1CCCCN1CCN(c2ncccn2)CC1` [Buspirone]: the Cmax in series [1] was 16 nM. In addition, the “DILI con. (DILI-concern labeling)” value in series [2] is “Amb.-DC”.

With `O=c1[nH]c(=O)n([C@@H]2O[C@H](CO)[C@@H](O)[C@@H]2F)cc1I` [Fialuridine], in series [1], the Cmax was 1000 nM. Also, in series [2], the “DILI con. (DILI-concern labeling)” value is “Most-DC” and the “Hepa. (hepatotoxicity class)” value is 8.

In the case of `COc1ccccc1Oc1c(NS(=O)(=O)c2ccc(C(C)(C)C)cc2)nc(-c2ncccn2)nc1OCCO` [Bosentan], the “Metab (metabolic potential)” value in series [3] is on record as “YES”. Besides, in series [2], the “DILI con. (DILI-concern labeling)” value is recorded as “Most-DC” and the “Hepa. (hepatotoxicity class)” value is recorded as 7.

With `Cn1cc[nH]c1=S` [Methimazole], in series [1], the Cmax was 2620 nM.

For the compound `CCC1=C(C)CN(C(=O)NCCc2ccc(S(=O)(=O)NC(=O)N[C@H]3CC[C@H](C)CC3)cc2)C1=O` [Glimepiride], the peak concentration (Cmax) in series [1] was 1120 nM. In series [2], the “DILI con. (DILI-concern labeling)” value was “Less-DC” and the “Hepa. (hepatotoxicity class)” value is listed as 7.

As to `CC1COc2c(N3CCN(C)CC3)c(F)cc3c(=O)c(C(=O)O)cn1c23` (centres unmarked) [Ofloxacin], the Cmax in series [1] is 9960 nM. For the same compound, the “Hepa. (hepatotoxicity class)” value in series [2] is listed as 3.

For `O=C(c1ccccc1)c1ccc2n1CCC2C(=O)O` (centres unmarked) [Ketorolac], the Cmax in series [1] was 3530 nM. Besides, in series [2], the “DILI con. (DILI-concern labeling)” value is on record as “Less-DC” and the “Hepa. (hepatotoxicity class)” value is 3.

For the compound `CC1(C)S[C@@H]2[C@H](NC(=O)[C@H](N)c3ccc(O)cc3)C(=O)N2[C@H]1C(=O)O` [Amoxicillin], the Cmax in series [1] was 22300 nM. Also, in series [2], the “DILI con. (DILI-concern labeling)” value was “Less-DC” and the “Hepa. (hepatotoxicity class)” value is 5.

Take `CN(Cc1cnc2nc(N)nc(N)c2n1)c1ccc(C(=O)N[C@@H](CCC(=O)O)C(=O)O)cc1` [Methotrexate]: the Cmax in series [1] is 770 nM. Besides, in series [2], the “DILI con. (DILI-concern labeling)” value was “Most-DC” and the “Hepa. (hepatotoxicity class)” value is 3.

Turning to `CCOC(=O)CN[C@@H](C(=O)N1CC[C@H]1C(=O)NCc1ccc(/C(N)=N\O)cc1)C1CCCCC1` [Ximelagatran], the Cmax in series [1] was 300 nM.

On to `CCCc1cc(=O)[nH]c(=S)[nH]1` [Propylthiouracil], for which the Cmax in series [1] is 9100 nM. In addition, the “Hepa. (hepatotoxicity class)” value in series [2] was 8.

Turning to `CCCCNC(=O)NS(=O)(=O)c1ccc(C)cc1` [Tolbutamide], in series [1], the Cmax is 233000 nM.

As for `Nc1nc2ncc(CNc3ccc(C(=O)N[C@@H](CCC(=O)O)C(=O)O)cc3)nc2c(=O)[nH]1` [Folic acid], the Cmax in series [1] is 43 nM. Moreover, the “Hepa. (hepatotoxicity class)” value in series [2] was 1.

As to `COc1ccc2c(c1)c(CC(=O)O)c(C)n2C(=O)c1ccc(Cl)cc1` [Indomethacin], the Cmax in series [1] is 5590 nM.

Turning to `C[C@]12C=CC(=O)C=C1CC[C@@H]1[C@@H]2[C@@H](O)C[C@@]2(C)[C@H]1CC[C@]2(O)C(=O)CO` [Prednisolone], in series [1], the Cmax is 680 nM. In series [2], the “DILI con. (DILI-concern labeling)” value was “Less-DC” and the “Hepa. (hepatotoxicity class)” value was 3.

In the case of `Clc1ccccc1C(c1ccccc1)(c1ccccc1)n1ccnc1` [Clotrimazole], in series [1], the Cmax was 87 nM. Besides, in series [2], the “DILI con. (DILI-concern labeling)” value was “Less-DC” and the “Hepa. (hepatotoxicity class)” value is 3.

`CCN(CC)C(=S)SSC(=S)N(CC)CC` [Disulfiram]: the maximum concentration (Cmax) in series [1] is 5400 nM.

Regarding `CCc1cccc2c3c([nH]c12)C(CC)(CC(=O)O)OCC3` (centres unmarked) [Etodolac], the Cmax in series [1] was 68500 nM. Also, in series [2], the “DILI con. (DILI-concern labeling)” value was “Most-DC” and the “Hepa. (hepatotoxicity class)” value is 8.

As for `CNCCC(Oc1ccc(C(F)(F)F)cc1)c1ccccc1` (centres unmarked) [Fluoxetine], in series [2], the “Hepa. (hepatotoxicity class)” value is on record as 3.

As to `COC(=O)Nc1nc2ccc(C(=O)c3ccccc3)cc2[nH]1` [Mebendazole], the Cmax in series [1] is 130 nM. Also, the “Hepa. (hepatotoxicity class)” value in series [2] is 3.

`CS(=O)(=O)OCCCCOS(C)(=O)=O` [Busulfan]: in series [1], the Cmax was 277 nM. For the same compound, in series [2], the “DILI con. (DILI-concern labeling)” value is “Most-DC” and the “Hepa. (hepatotoxicity class)” value is given as 8.

For `NC(=O)N1c2ccccc2C=Cc2ccccc21` [Carbamazepine], the Cmax in series [1] was 50800 nM. Besides, in series [2], the “DILI con. (DILI-concern labeling)” value is recorded as “Most-DC” and the “Hepa. (hepatotoxicity class)” value is 7.

`CNCCCC12CCC(c3ccccc31)c1ccccc12` [Maprotiline]: the Cmax in series [1] is 180 nM. In series [2], the “DILI con. (DILI-concern labeling)” value is reported as “Amb.-DC” and the “Hepa. (hepatotoxicity class)” value is recorded as 5.
